“And” between values parts separate entries of the source, which are not always exact repeats. Identical values can stand only once.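 Compound exposure: 48 hours, 5 concentrations, 96-well plates. GI50: concentration for 50% inhibition of growth. TGI: concentration producing complete growth inhibition.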
These compounds were tested on MDA-MB-468 breast (assay: DTP human tumour cell line panel, 48 h).

SMILES | GI50 | TGI
CN1CCN(c2ccc(Nc3nc(NCCCNS(=O)(=O)c4ccccc4)c4sccc4n3)cc2)CC1 | 11.8 µM | 26.4 µM
Cn1c(=O)nc2n(-c3ccc(Cl)cc3)c3cc(Cl)ccc3nc-2c1=O | 1.59 µM | 3.07 µM
CCc1cnn2c(NCc3ccc[n+]([O-])c3)cc(N3CCCC[C@H]3CCO)nc12 | < 0.01 µM and 0.00221 µM | < 0.01 µM and 0.00588 µM
O=Nc1c(-c2c(O)[nH]c3cc(Br)ccc23)[nH]c2ccccc12 | 2 µM | 4.93 µM
Cc1ccc(C=C2C(Cl)=C(Cl)C(Cl)=C2Cl)cc1 | 0.189 µM | 0.573 µM
CC(C)[C@@](O)(c1ccc2cc(OC(F)F)c(OC(F)F)cc2c1)c1cn[nH]n1 | 12.9 µM | 47.4 µM
COc1cc(/C=C2\CCC/C(=C\c3ccc(O)c(OC)c3)C2=O)ccc1O | 1.46 µM | 3.48 µM
O=C(c1ccc(C(F)(F)F)c(Cl)c1)N(Cc1ccc(Cl)cc1)c1ccc(-c2cc(C(F)(F)F)[nH]n2)c(O)c1 | 0.928 µM | 3.91 µM
COc1cc(N2C(=O)[C@H](c3ccccc3)C2c2ccc(SC)cc2)cc(OC)c1OC (some centres undefined) | 0.0271 µM | 0.0929 µM
COC(=O)c1ccccc1CC1Cc2cc3c(cc2C1=O)CCC3 (centres undefined) | 10.6 µM | 42.1 µM
CC(C)(C)c1cc(/C=N/NC(=O)c2ccccc2NC(=O)c2cccs2)c(O)c(C(C)(C)C)c1 | 0.386 µM | 20.5 µM
CN(C)CCCSc1ccccc1NC1=C(Cl)C(=O)C(Nc2ccccc2SCCCN(C)C)=C(Cl)C1=O | 1.52 µM | 3.22 µM
COC1=C(C)C(=O)c2c(c(CCCl)c3n2CCC3OC(C)=O)C1=O (centres undefined) | 5.01 µM | 22.5 µM
O=c1cnnc(N/N=C/c2ccccc2O)[nH]1 | 0.265 µM | 3.32 µM
COc1ccc(C2CC(c3ccc(Nc4ccnc5cc(Cl)ccc45)cc3)=NN2C=O)cc1 (centres undefined) | 1 µM | 6.84 µM
Cc1ccc2cccc(OC(=O)Nc3cccc(C(F)(F)F)c3)c2n1 | 3.65 µM | 12.9 µM

SMILES | GI50 | TGI
C=CC(=O)N1C[C@@H]2CCOc3c(Cl)c(-c4c(O)cccc4F)c(F)c4ncnc(c34)N2C[C@H]1C | 2.33 µM | 10.4 µM
COc1ccc(NC2=C(I)C(=O)c3ncccc3C2=O)cc1 | 1.35 µM | 2.94 µM
CC(C)(c1ccccc1)c1cc(O)c(C(C)(C)c2ccccc2)cc1O | 0.376 µM | 3.72 µM
COc1cccc(-c2cc(=O)c3cc(N4CCOCC4)ccc3[nH]2)c1 | 0.927 µM | > 100 µM
O=C1c2cccnc2C(=O)c2c1c(C(=O)OCCN1CCCCC1)c1ccccn21 | 0.869 µM | 2.84 µM
O=C(C=P(c1ccccc1)(c1ccccc1)c1ccccc1)CCl | 0.268 µM | 1.28 µM
CC(=O)CC/C=C(\C)[C@H](O)[C@H](C)C(=O)O[C@H]1C[C@H](C)C=C2C=C[C@@]3(C)O[C@@H](O)CC(=O)[C@]3(C)[C@H]21 | 0.454 µM | 2 µM
COc1cc(/C=C/c2cc(/C=C/c3ccc(O)c(OC)c3)n(C(=O)Nc3ccccc3Cl)n2)ccc1O | 0.264 µM | 0.748 µM
CCCC(=O)NC(c1ccc2c(c1)OC(F)(F)O2)c1cc(C)c2cccnc2c1O (centres undefined) | 0.37 µM | 2.21 µM
Clc1cc(Cl)c(OCCCCCCN2CCNCC2)c(Cl)c1 | 2.14 µM | 4.61 µM
COc1ccc(C(=NN=C(N)N)c2ccc(OC)cc2)cc1 | 1.71 µM | 4.71 µM
C#CC(=O)Nc1cccc2c1cc(C)n2-c1nc2c(c(NCc3ccccc3)n1)CCCC2 | 0.211 µM | 0.596 µM
COc1ccc(/C=C2\COc3ccc(O)c(O)c3C2=O)c(OC)c1OC | 2.18 µM | 6.28 µM
CN(C)CC(=O)Nc1ccc2ncnc(Nc3ccc(Oc4cccc(C(F)(F)F)c4)c(Cl)c3)c2c1 | 1.28 µM | 3.23 µM
Cn1cc(-c2nc(-c3c[nH]c4ncccc34)cs2)c2ccccc21 | 0.314 µM | 0.82 µM
NC(=S)N/N=C1\c2ccccc2-c2c(F)c(F)c(F)c(F)c21 | 2.49 µM | 5.14 µM
